Measured values as given in BindingDB's records for doi:10.1021/acs.jmedchem.8b00655 (University of Iowa, 2018).

Experiment: Binding affinity to BTN3A1 in human PBMC assessed as stimulation of Vgamma9 Vdelta2 T cells incubated for 3 days and measured after 11 days post compound removal by flow cytometry

Structure (SMILES)	EC50 [nM]
C/C(=C\CCP(=O)(NCC(=O)OC(C)C)Oc1cccc2ccccc12)CO (stereo not given)	0.34
CCOC(=O)CNP(=O)(CC/C=C(\C)CO)Oc1ccc2ccccc2c1 (stereo not given)	0.53
COC(=O)CNP(=O)(CC/C=C(\C)CO)Oc1cccc2ccccc12 (stereo not given)	0.44
CCOC(=O)CNP(=O)(CC/C=C(\C)CO)Oc1ccccc1 (stereo not given)	0.36
C/C(=C\CCP(=O)(NCC(=O)OC(C)C)Oc1ccc2ccccc2c1)CO (stereo not given)	0.82
COC(=O)CNP(=O)(CC/C=C(\C)CO)Oc1ccccc1 (stereo not given)	1.5
CCOC(=O)CNP(=O)(CC/C=C(\C)CO)Oc1cccc2ccccc12 (stereo not given)	0.36
COC(=O)CNP(=O)(CC/C=C(\C)CO)Oc1ccc2ccccc2c1 (stereo not given)	0.58
COP(=O)(CC/C=C(\C)CO)OC	> 10000
C/C(=C\CCP(=O)(NCC(=O)OC(C)C)Oc1ccccc1)CO (stereo not given)	1.1
